Experiment: Zeta potential
Assay type: physicochemical
Description: In certain embodiments, the ZLC, e.g., any of Complex 2, et seq. can have a zeta potential on the order of +10 to +60, e.g., between +20 and +50. Zeta potential is measured as described below. The zeta potential indicates the degree of repulsion between adjacent, similarly charged particles in a dispersion. For molecules and particles that are small enough to be influenced by […], a high zeta potential will tend to confer stability, i.e., the particles will tend to repel one another, and the solution or dispersion will resist aggregation. When the zeta potential is low, attraction exceeds repulsion and the dispersion will break and flocculate. Here, it is desirable to have a zeta potential that is high enough in formulation to deter aggregation, but low enough to allow flocculation and blockage of the pores. […] Having a similar zeta potential, the ZLC, e.g., any of Complex 2, et seq. will behave similarly and flocculate when introduced into a pore and becomes hydrated. In contrast, zinc chloride has a zeta potential of about 0, which is much lower than current antiperspirant salts and the current disclosure.

## [Cl-].[Cl-].[Zn+2] [zinc chloride]
  zeta potential: about 0

Source: US20170121351A1, “Synthesis of Zinc-Lysine Complex From Zinc Chloride” (Colgate-Palmolive Company, priority 2014, published 2017)
